This passage reports IC50 results from US11759455B2, “Substituted 1H-imidazo[4,5-b]pyridin-2(3H)-ones and their use as GLUN2B receptor modulators” (JANSSEN PHARMACEUTICA NV, priority 2016, dated 2023).

Where two headings read alike, the source gives them in different places.

The assay addresses T1, human GluN1/GluN2B NMDA receptors (Homo sapiens, UniProt Q13224).
T1 construct: expressed in transfected cells
Briefly: Cell-based calcium flux (FLIPR) assay on cloned human NR1/NR2B ion channels expressed in mammalian cells (standard and HTS buffer variants).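 Further: stable Tet-On inducible cell line, Ca2+ influx triggered by glutamate at about EC40 plus 10 µM glycine, fluorescent dye read-out over 5 min, normalized to control wells.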 Background: Calcium flux is commonly read through the fluorescence of an indicator in the cells.

Where [1] appears, read: standard assay buffer (0.5 mM MgCl2 dye loading; 137 mM NaCl, 4 mM KCl assay buffer), human GluN1/GluN2B cells, read-out: NR2B IC50 (μM) standard assay.
The mark [2] stands for this setting: standard assay buffer (0.5 mM MgCl2 in dye loading buffer; 137 mM NaCl, 4 mM KCl in assay buffer), human GluN1/GluN2B, read-out: NR2B IC50 (μM) standard assay.

T1 sequence (Q13224 27-1484, other chains not shown): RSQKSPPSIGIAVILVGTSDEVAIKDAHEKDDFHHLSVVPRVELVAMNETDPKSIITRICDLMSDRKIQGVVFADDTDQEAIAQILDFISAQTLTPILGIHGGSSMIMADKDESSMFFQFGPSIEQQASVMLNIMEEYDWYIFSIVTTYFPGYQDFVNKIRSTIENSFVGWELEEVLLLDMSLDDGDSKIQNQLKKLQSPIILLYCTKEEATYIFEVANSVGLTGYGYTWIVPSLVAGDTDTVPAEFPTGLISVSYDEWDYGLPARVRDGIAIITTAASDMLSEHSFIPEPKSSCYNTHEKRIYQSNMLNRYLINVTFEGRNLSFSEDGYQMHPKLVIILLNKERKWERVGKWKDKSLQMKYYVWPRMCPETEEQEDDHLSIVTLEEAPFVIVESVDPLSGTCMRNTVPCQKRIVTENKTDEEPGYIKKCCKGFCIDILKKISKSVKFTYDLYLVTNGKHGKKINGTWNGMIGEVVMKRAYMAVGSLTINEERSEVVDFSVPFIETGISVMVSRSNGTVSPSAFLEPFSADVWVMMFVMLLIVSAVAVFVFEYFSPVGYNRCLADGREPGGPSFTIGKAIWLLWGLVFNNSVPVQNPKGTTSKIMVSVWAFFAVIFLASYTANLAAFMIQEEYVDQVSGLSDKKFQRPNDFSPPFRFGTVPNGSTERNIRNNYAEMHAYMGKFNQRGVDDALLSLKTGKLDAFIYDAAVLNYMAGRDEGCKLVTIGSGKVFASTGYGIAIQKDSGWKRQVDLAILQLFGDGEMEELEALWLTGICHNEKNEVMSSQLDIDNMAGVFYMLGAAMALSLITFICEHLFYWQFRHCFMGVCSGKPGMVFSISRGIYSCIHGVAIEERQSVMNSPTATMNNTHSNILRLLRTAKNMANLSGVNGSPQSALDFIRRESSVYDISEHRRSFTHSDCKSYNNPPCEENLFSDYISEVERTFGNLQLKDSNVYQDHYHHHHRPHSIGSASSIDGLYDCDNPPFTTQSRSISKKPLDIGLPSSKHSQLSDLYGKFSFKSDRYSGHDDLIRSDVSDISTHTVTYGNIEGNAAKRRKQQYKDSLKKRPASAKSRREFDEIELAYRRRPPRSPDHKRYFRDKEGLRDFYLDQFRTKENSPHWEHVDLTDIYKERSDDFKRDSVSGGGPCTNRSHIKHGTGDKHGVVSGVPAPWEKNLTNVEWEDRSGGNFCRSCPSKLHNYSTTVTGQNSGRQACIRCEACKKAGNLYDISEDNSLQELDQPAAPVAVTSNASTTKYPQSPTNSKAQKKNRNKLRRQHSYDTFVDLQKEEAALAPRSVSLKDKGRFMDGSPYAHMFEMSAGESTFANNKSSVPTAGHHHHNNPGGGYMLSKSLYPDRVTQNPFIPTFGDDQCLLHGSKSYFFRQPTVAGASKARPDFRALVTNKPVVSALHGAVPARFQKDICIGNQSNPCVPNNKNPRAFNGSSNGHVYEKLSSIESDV

As a reminder, the IC50 is the concentration that gives 50% inhibition. `Cc1cc(Cn2c(=O)[nH]c3ncc(-c4ccccc4C)cc32)no1` [Example 126, 1-[(5-Methylisoxazol-3-yl)methyl]-6-(o-tolyl)-3H-imidazo[4,5-b]pyridin-2-one]: the half-inhibitory concentration (IC50) under setting [1] stood at 0.038 µM.
Regarding `COCCNC(=O)Cn1c(=O)[nH]c2ncc(-c3ccc(F)c(Cl)c3)cc21` [Example 612, 2-[6-(3-Chloro-4-fluoro-phenyl)-2-oxo-3H-imidazo[4,5-b]pyridin-1-yl]-N-(2-methoxyethyl)acetamide], the IC50 under setting [2] amounted to 0.116 µM.
For `Cc1cc(-c2cnc3c(c2)n(Cc2cccnn2)c(=O)n3C)ccc1F` [Example 50, 6-(4-Fluoro-3-methyl-phenyl)-3-methyl-1-(pyridazin-3-ylmethyl)imidazo[4,5-b]pyridin-2-one], the IC50 under setting [1] amounted to 0.009 µM.
On to `Cc1cc(Cn2c(=O)n(C)c3ncc(-c4ccc(C)s4)cc32)no1` [Example 558, 3-Methyl-1-[(5-methylisoxazol-3-yl)methyl]-6-(5-methyl-2-thienyl)imidazo[4,5-b]pyridin-2-one], for which, under setting [2], the half-inhibitory concentration (IC50) worked out at 0.216 µM.
As to `O=C(Cn1c(=O)[nH]c2ncc(-c3cccc(C(F)(F)F)c3)cc21)NC1CCC1` [Example 190, N-Cyclobutyl-2-[2-oxo-6-[3-(trifluoromethyl)phenyl]-3H-imidazo[4,5-b]pyridin-1-yl]acetamide], the IC50 under setting [1] was 0.07 µM.
`O=c1[nH]c2ncc(-c3cccc(C(F)(F)F)c3)cc2n1Cc1cccnc1` [Example 230, 1-(3-Pyridylmethyl)-6-[3-(trifluoromethyl)phenyl]-3H-imidazo[4,5-b]pyridin-2-one]: under setting [1], the IC50 turned out to be 0.017 µM.
As for `Cc1c(F)ccc(-c2cnc3c(c2)n(Cc2cccnn2)c(=O)n3C)c1F` [Example 67, 6-(2,4-Difluoro-3-methyl-phenyl)-3-methyl-1-(pyridazin-3-ylmethyl)imidazo[4,5-b]pyridin-2-one], the half-maximal inhibitory concentration (IC50) under setting [1] is 0.009 µM.
In the case of `Cn1c(=O)n(Cc2cncc(F)c2)c2cc(-c3ccc(F)c(C(F)F)c3)cnc21` [Example 546, 6-[3-(Difluoromethyl)-4-fluoro-phenyl]-1-[(5-fluoro-3-pyridyl)methyl]-3-methyl-imidazo[4,5-b]pyridin-2-one], the concentration for half-maximal inhibition (IC50) under setting [2] was determined as 0.024 µM.
With `Cn1c(=O)n(Cc2ncccn2)c2cc(-c3cccc(F)c3)cnc21` [Example 56, 6-(3-Fluorophenyl)-3-methyl-1-(pyrimidin-2-ylmethyl)imidazo[4,5-b]pyridin-2-one], under setting [1], the half-inhibitory concentration (IC50) came out at 8.71 µM.
For `O=C(Cn1c(=O)[nH]c2ncc(-c3ccc(OCCF)c(C(F)(F)F)c3)cc21)N1CCC1` [Example 538, 1-[2-(Azetidin-1-yl)-2-oxo-ethyl]-6-[4-(2-fluoroethoxy)-3-(trifluoromethyl)phenyl]-3H-imidazo[4,5-b]pyridin-2-one], the IC50 under setting [2] is 0.24 µM.
The same measure, in the same setting: then `NC(=O)Cn1c(=O)[nH]c2ncc(-c3ccc(F)c(Cl)c3)cc21` [Example 434, 2-[6-(3-Chloro-4-fluoro-phenyl)-2-oxo-3H-imidazo[4,5-b]pyridin-1-yl]acetamide], with 0.583 µM.
With `Cc1csc(-c2cnc3c(c2)n(Cc2cc(C)on2)c(=O)n3C)c1` [Example 14, 3-Methyl-1-[(5-methylisoxazol-3-yl)methyl]-6-(4-methyl-2-thienyl)imidazo[4,5-b]pyridin-2-one], the IC50 under setting [1] stood at 0.097 µM.
The same measure, in the same setting: with `Cc1cc(Cn2c(=O)[nH]c3ncc(-c4ccccc4)cc32)no1` [Example 11, 1-[(5-Methylisoxazol-3-yl)methyl]-6-phenyl-3H-imidazo[4,5-b]pyridin-2-one] the figure was 0.088 µM.
Consider `CCNC(=O)Cn1c(=O)[nH]c2ncc(-c3ccc(F)cc3C)cc21` [Example 3, N-Ethyl-2-[6-(4-fluoro-2-methyl-phenyl)-2-oxo-3H-imidazo[4,5-b]pyridin-1-yl]acetamide], for which, under setting [1], the IC50 was 0.088 µM.
In the case of `COc1ccc(-c2cnc3[nH]c(=O)n(CC(=O)N4CCOCC4)c3c2)cc1` [Example 1, 6-(4-Methoxyphenyl)-1-(2-morpholino-2-oxo-ethyl)-3H-imidazo[4,5-b]pyridin-2-one], the half-maximal inhibitory concentration (IC50) under setting [1] was found to be 2.74 µM.
`Cn1c(=O)n(Cc2cccnc2)c2cc(-c3cccc(C(F)F)c3)cnc21` [Example 363, 6-[3-(Difluoromethyl)phenyl]-3-methyl-1-(3-pyridylmethyl)imidazo[4,5-b]pyridin-2-one]: under setting [2], the half-inhibitory concentration (IC50) came out at 0.053 µM.
Regarding `CCOc1ccc(F)cc1-c1cnc2[nH]c(=O)n(Cc3ccccc3C#N)c2c1` [Example 489, 2-[[6-(2-Ethoxy-5-fluoro-phenyl)-2-oxo-3H-imidazo[4,5-b]pyridin-1-yl]methyl]benzonitrile], the concentration for half-maximal inhibition (IC50) (HTS assay buffer (1.5 mM MgCl2 in dye loading buffer; 150 mM NaCl, 3 mM KCl in assay buffer), human GluN1/GluN2B, read-out: NR2B IC50 (μM) HTS assay) was 1.28 µM.
On to `Cn1c(=O)n(Cc2cccnc2)c2cc(-c3ccc(F)c(C(F)(F)F)c3)cnc21` [Example 360, 6-[4-Fluoro-3-(trifluoromethyl)phenyl]-3-methyl-1-(3-pyridylmethyl)imidazo[4,5-b]pyridin-2-one], for which the half-maximal inhibitory concentration (IC50) under setting [2] amounted to 0.034 µM.
Still for that read-out and setting: with `Cc1nnc(Cn2c(=O)n(C)c3ncc(-c4ccc(C(F)F)s4)cc32)o1` [Example 560, 6-[5-(Difluoromethyl)-2-thienyl]-3-methyl-1-[(5-methyl-1,3,4-oxadiazol-2-yl)methyl]imidazo[4,5-b]pyridin-2-one] the figure was 0.304 µM.
As for `Cn1c(=O)n(Cc2ccccn2)c2cc(-c3cccc(C(F)(F)F)c3)cnc21` [Example 251, 3-Methyl-1-(2-pyridylmethyl)-6-[3-(trifluoromethyl)phenyl]imidazo[4,5-b]pyridin-2-one], under setting [1], the IC50 is 0.8 µM.
Take `Cc1cccc(-c2cnc3c(c2)n(CC(=O)N(C)C)c(=O)n3C)c1` [Example 583, N,N-Dimethyl-2-[3-methyl-6-(m-tolyl)-2-oxo-imidazo[4,5-b]pyridin-1-yl]acetamide]: the IC50 under setting [2] stood at 0.051 µM.
On to `CN(C)C(=O)Cn1c(=O)n(C)c2ncc(-c3ccc(F)c(C(F)F)c3)cc21` [Example 533, 2-[6-[3-(Difluoromethyl)-4-fluoro-phenyl]-3-methyl-2-oxo-imidazo[4,5-b]pyridin-1-yl]-N,N-dimethyl-acetamide], for which, under setting [2], the IC50 turned out to be 0.025 µM.
Consider `Cc1ccc(-c2cnc3[nH]c(=O)n(Cc4ccccn4)c3c2)cc1` [Example 289, 6-(p-Tolyl)-1-(2-pyridylmethyl)-3H-imidazo[4,5-b]pyridin-2-one], for which the half-maximal inhibitory concentration (IC50) under setting [1] stood at 7.08 µM.
For the molecule `CCC(=O)Cn1c(=O)[nH]c2ncc(-c3cccc(F)n3)cc21` [Example 537, 6-(6-Fluoro-2-pyridyl)-1-(2-oxobutyl)-3H-imidazo[4,5-b]pyridin-2-one], the IC50 under setting [2] stood at 0.273 µM.
For the molecule `Cn1c(=O)n(CC(=O)N2CCC2)c2cc(-c3csc(C(F)F)c3)cnc21` [Example 98, 1-[2-(Azetidin-1-yl)-2-oxo-ethyl]-6-[5-(difluoromethyl)-3-thienyl]-3-methyl-imidazo[4,5-b]pyridin-2-one], the concentration for half-maximal inhibition (IC50) under setting [1] stood at 0.013 µM.
Turning to `Cn1cc(Cn2c(=O)n(C)c3ncc(-c4ccc(C(F)(F)F)s4)cc32)cn1` [Example 565, 3-Methyl-1-[(1-methylpyrazol-4-yl)methyl]-6-[5-(trifluoromethyl)-2-thienyl]imidazo[4,5-b]pyridin-2-one], the half-inhibitory concentration (IC50) under setting [2] amounted to 0.374 µM.
As for `O=c1[nH]c2ncc(-c3cccc(OC(F)(F)F)c3)cc2n1CCN1CCC1` [Example 160, 1-[2-(Azetidin-1-yl)ethyl]-6-[3-(trifluoromethoxy)phenyl]-3H-imidazo[4,5-b]pyridin-2-one], the IC50 under setting [1] was 0.311 µM.
